According to ChEMBL document CHEMBL1133736, “Modeling cyclooxygenase inhibition. Implication of active site hydration on the selectivity of ketoprofen analogues” (J Med Chem, 2000):

Key:
[1] = target: Prostaglandin G/H synthase 1 (Homo sapiens, UniProt P23219); assay: Concentration required for 50% inhibition against Prostaglandin G/H synthase 1 from human
[2] = target: T1, Prostaglandin G/H synthase 2 (Homo sapiens, UniProt P35354); assay: Concentration required for 50% inhibition against Prostaglandin G/H synthase 2 from human
T1 sequence (P35354 whole entry): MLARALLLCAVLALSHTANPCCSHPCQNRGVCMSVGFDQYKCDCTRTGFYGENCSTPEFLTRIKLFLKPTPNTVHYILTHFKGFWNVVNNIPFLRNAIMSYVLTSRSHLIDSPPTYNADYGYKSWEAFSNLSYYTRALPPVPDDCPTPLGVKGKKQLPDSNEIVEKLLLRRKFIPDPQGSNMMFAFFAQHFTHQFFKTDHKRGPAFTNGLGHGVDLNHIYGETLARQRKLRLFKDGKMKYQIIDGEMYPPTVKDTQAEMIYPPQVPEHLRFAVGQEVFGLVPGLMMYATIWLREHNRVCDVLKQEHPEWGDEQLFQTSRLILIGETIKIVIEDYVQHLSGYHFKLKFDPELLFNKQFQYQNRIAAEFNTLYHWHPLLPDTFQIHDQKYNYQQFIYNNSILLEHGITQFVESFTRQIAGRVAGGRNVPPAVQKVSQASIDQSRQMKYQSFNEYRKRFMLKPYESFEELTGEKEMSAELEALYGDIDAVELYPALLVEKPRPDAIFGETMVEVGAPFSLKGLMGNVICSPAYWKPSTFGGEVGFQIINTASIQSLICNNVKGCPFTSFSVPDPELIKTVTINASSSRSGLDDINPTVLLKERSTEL

Sequence of Prostaglandin G/H synthase 1 (P23219 whole entry): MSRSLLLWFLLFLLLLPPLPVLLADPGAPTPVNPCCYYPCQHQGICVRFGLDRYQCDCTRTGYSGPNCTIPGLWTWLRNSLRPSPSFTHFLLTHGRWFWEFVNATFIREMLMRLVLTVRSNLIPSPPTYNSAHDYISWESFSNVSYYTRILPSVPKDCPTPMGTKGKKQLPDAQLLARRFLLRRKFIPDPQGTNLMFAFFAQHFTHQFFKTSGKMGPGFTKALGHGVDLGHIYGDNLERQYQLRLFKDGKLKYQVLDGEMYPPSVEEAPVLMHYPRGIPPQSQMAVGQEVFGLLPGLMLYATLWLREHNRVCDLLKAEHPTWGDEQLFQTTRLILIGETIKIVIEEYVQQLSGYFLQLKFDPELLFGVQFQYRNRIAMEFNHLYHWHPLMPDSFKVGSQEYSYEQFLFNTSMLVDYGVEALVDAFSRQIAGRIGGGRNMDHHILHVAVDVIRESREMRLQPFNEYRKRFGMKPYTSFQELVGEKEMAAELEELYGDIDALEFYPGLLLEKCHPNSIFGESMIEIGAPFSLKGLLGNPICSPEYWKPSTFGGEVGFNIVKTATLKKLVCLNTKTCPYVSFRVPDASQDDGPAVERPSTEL

Row | Compound | IC50 [1] [nM] | IC50 [2] [nM]
1 | COc1ccc(C(=O)c2ccccc2)cc1C(C)C(=O)O (stereo not drawn) | 42 | 
2 | CC(C(=O)O)c1cc(C(=O)c2ccccc2)ccc1O (stereo not drawn) | 51 | 300
